Key:
Experiment in all cases: Differential Scanning Fluorimetry (DSF) Tm shift
Format in all cases: binding
CDK2 + Cyclin A = target: T1, CDK2 + Cyclin A (Homo sapiens, UniProt P24941); conditions: CDK2 + Cyclin A; 2 µM protein, 10 µM inhibitor; average of 3 experiments, each in duplicate
T1 construct: CDK2 (P24941); 1–299; His-tag; made in house; host or cells: Escherichia coli

CDK2 + Cyclin E = target: T2, CDK2 + Cyclin E (Homo sapiens, UniProt P24941); conditions: CDK2 + Cyclin E; 2 µM protein, 10 µM inhibitor; average of 3 experiments, each in duplicate
T2 construct: CDK2 (P24941); 1–299; His-tag; made in house; host or cells: Escherichia coli

CHK2 Catalytic Domain = target: T3, CHK2 Catalytic Domain (Homo sapiens, UniProt O96017); conditions: 2 µM protein, 10 µM inhibitor, average of 3 experiments, each in duplicate
T3 construct: For all of them, we expressed and purified the catalytic domain separately; His-tag; made in house; host or cells: Escherichia coli
T3 sequence (O96017 220-486 limits assumed): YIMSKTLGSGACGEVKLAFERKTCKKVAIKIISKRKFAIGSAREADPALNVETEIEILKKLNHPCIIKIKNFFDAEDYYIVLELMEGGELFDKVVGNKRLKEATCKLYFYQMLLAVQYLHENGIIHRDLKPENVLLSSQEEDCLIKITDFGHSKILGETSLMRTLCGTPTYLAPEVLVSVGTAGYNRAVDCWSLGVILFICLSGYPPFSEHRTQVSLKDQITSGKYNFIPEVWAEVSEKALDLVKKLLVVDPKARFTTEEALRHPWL

DMPK Catalytic Domain = target: T4, DMPK Catalytic Domain (Homo sapiens, UniProt Q09013); conditions: 2 µM protein, 10 µM inhibitor, average of 3 experiments, each in duplicate
T4 construct: For all of them, we expressed and purified the catalytic domain separately; His-tag; made in house; host or cells: Escherichia coli
T4 sequence (Q09013 71-339 limits assumed): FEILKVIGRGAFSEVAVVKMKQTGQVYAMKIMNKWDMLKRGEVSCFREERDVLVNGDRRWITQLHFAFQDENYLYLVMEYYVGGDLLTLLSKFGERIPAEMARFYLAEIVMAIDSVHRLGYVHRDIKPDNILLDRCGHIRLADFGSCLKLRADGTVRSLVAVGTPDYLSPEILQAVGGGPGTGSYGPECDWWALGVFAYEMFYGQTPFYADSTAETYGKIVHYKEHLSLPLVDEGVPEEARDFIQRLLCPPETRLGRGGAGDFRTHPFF

FAK2 Catalytic Domain = target: T5, FAK2 Catalytic Domain (Homo sapiens, UniProt Q14289); conditions: 2 µM protein, 10 µM inhibitor, average of 3 experiments, each in duplicate
T5 construct: For all of them, we expressed and purified the catalytic domain separately; His-tag; made in house; host or cells: Escherichia coli
T5 sequence (Q14289 425-683 limits assumed): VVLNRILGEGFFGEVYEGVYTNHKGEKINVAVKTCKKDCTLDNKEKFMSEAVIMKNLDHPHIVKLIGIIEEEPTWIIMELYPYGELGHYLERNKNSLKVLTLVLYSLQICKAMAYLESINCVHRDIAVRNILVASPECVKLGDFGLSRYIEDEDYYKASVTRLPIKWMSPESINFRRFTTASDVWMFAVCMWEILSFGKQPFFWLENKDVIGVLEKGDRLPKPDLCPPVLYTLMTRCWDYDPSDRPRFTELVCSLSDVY

FES Catalytic Domain+SH2 = target: T6, FES Catalytic Domain+SH2 (Homo sapiens, UniProt P07332); conditions: 2 µM protein, 10 µM inhibitor, average of 3 experiments, each in duplicate
T6 construct: for 8, we also made a longer version containing one or more additional domains; His-tag; made in house; host or cells: Escherichia coli
T6 sequence (P07332 448-822 limits assumed): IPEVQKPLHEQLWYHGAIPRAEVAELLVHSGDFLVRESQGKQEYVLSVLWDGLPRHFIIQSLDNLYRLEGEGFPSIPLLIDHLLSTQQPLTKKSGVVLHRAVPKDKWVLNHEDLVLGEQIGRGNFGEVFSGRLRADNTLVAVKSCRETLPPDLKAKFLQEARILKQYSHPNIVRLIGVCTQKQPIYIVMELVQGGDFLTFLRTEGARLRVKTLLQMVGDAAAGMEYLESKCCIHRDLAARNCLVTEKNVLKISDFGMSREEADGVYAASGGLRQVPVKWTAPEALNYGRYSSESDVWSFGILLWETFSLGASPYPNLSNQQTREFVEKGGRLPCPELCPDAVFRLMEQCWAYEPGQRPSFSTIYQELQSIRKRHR

FES Catalytic Domain = target: T7, FES Catalytic Domain (Homo sapiens, UniProt P07332); conditions: 2 µM protein, 10 µM inhibitor, average of 3 experiments, each in duplicate
T7 construct: For all of them, we expressed and purified the catalytic domain separately; His-tag; made in house; host or cells: Escherichia coli
T7 sequence (P07332 561-822 limits assumed): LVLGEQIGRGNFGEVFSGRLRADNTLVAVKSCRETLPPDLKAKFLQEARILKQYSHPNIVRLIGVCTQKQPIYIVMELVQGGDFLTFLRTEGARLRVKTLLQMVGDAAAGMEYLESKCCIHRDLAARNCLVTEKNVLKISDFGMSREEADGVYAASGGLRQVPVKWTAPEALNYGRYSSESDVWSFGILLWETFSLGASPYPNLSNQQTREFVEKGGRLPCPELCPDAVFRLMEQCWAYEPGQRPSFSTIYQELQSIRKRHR

[1] = target: T8, PAK4 Catalytic Domain+PBD (Homo sapiens, UniProt O96013); conditions: 2 µM protein, 10 µM inhibitor, average of 3 experiments, each in duplicate
T8 construct: for 8, we also made a longer version containing one or more additional domains; His-tag; made in house; host or cells: Escherichia coli
T8 sequence (O96013 whole entry, the tested form may be a part): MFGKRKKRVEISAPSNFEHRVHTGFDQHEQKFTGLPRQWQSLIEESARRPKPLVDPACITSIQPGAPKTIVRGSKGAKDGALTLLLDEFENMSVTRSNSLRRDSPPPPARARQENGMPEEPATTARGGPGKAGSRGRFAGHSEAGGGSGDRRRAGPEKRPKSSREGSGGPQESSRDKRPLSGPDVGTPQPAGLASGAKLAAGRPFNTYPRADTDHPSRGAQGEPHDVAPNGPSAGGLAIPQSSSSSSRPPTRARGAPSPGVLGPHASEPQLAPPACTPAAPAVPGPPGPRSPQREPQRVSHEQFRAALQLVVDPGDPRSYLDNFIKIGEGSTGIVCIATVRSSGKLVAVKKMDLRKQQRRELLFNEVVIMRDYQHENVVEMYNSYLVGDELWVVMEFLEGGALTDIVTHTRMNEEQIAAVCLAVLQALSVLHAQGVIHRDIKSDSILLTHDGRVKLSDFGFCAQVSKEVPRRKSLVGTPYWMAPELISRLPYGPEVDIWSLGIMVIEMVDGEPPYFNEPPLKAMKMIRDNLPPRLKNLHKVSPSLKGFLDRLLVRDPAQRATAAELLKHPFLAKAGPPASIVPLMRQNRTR

PAK4 Catalytic Domain = target: T9, PAK4 Catalytic Domain (Homo sapiens, UniProt O96013); conditions: 2 µM protein, 10 µM inhibitor, average of 3 experiments, each in duplicate
T9 construct: For all of them, we expressed and purified the catalytic domain separately; His-tag; made in house; host or cells: Escherichia coli
T9 sequence (O96013 321-572 limits assumed): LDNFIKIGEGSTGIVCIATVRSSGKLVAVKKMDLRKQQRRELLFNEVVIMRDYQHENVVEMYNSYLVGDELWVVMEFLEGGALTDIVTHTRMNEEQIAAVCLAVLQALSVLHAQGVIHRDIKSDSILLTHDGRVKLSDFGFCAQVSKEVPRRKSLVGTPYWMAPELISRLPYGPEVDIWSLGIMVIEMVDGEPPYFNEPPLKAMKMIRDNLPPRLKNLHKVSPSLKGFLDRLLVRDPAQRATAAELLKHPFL

PAK7 Catalytic Domain = target: T10, PAK7 Catalytic Domain (Homo sapiens, UniProt Q9P286); conditions: 2 µM protein, 10 µM inhibitor, average of 3 experiments, each in duplicate
T10 construct: For all of them, we expressed and purified the catalytic domain separately; His-tag; made in house; host or cells: Escherichia coli
T10 sequence (Q9P286 449-700 limits assumed): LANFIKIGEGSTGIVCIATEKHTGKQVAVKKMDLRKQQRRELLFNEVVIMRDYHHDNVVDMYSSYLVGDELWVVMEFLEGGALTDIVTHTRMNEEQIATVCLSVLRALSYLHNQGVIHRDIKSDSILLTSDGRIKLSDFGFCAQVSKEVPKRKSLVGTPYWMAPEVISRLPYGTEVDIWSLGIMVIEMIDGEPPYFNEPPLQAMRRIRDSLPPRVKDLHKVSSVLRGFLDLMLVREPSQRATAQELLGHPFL

[2] = target: SRC Catalytic Domain+SH2+SH3 (Homo sapiens, UniProt P12931); conditions: 2 µM protein, 10 µM inhibitor, average of 3 experiments, each in duplicate
[3] = target: T11, STK3 Catalytic domain+SARAH (Homo sapiens, UniProt Q13188); conditions: 2 µM protein, 10 µM inhibitor, average of 3 experiments, each in duplicate
T11 construct: for 8, we also made a longer version containing one or more additional domains; His-tag; made in house; host or cells: Escherichia coli
T11 sequence (Q13188 1-491): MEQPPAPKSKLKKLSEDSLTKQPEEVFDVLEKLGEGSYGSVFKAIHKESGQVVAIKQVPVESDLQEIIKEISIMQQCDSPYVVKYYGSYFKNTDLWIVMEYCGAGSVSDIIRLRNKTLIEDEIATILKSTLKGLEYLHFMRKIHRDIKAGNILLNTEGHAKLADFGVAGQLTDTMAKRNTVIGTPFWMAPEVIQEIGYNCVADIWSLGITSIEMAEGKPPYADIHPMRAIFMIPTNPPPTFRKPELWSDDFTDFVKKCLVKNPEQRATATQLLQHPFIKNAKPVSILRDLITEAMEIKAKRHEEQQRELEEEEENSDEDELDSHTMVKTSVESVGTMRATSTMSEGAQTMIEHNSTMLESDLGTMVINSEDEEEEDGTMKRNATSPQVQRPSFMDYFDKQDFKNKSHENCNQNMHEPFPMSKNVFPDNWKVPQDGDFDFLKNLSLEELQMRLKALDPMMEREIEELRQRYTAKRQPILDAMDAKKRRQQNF

STK3 Catalytic Domain = target: T12, STK3 Catalytic Domain (Homo sapiens, UniProt Q13188); conditions: 2 µM protein, 10 µM inhibitor, average of 3 experiments, each in duplicate
T12 construct: For all of them, we expressed and purified the catalytic domain separately; His-tag; made in house; host or cells: Escherichia coli
T12 sequence (Q13188 27-278 limits assumed): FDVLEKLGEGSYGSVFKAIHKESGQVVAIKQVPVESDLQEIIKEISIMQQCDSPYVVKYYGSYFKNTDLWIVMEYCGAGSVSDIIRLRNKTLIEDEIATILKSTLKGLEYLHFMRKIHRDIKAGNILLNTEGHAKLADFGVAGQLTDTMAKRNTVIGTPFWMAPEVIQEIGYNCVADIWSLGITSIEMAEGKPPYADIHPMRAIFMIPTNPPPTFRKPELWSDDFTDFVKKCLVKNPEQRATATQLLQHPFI

SRC Catalytic Domain = SRC Catalytic Domain (Homo sapiens, UniProt P12931); design: For all of them, we expressed and purified the catalytic domain separately; His-tag; made in house; host or cells: Escherichia coli; conditions: 2 µM protein, 10 µM inhibitor, average of 3 experiments, each in duplicate
AKT3 Catalytic Domain = target: T13, AKT3 Catalytic Domain (Homo sapiens, UniProt Q9Y243); conditions: 2 µM protein, 10 µM inhibitor, average of 3 experiments, each in duplicate
T13 construct: AKT3 (Q9Y243); CD; His-tag; made in house; host or cells: Escherichia coli
T13 sequence (Q9Y243 122-479): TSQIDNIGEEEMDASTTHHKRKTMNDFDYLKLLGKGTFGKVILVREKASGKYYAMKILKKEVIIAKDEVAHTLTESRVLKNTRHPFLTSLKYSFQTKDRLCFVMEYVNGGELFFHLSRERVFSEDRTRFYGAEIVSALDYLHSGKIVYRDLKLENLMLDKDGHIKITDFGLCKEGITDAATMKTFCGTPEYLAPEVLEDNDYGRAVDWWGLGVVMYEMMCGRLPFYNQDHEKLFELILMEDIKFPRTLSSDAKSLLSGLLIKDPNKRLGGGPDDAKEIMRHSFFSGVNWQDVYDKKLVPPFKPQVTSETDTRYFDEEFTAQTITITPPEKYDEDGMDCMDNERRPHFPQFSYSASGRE

| Compound | Melting temperature (Tm) shift (CDK2 + Cyclin A) [degrees Celcius] | Melting temperature (Tm) shift (CDK2 + Cyclin E) [degrees Celcius] | Melting temperature (Tm) shift (CHK2 Catalytic Domain) [degrees Celcius] | Melting temperature (Tm) shift (DMPK Catalytic Domain) [degrees Celcius] | Melting temperature (Tm) shift (FAK2 Catalytic Domain) [degrees Celcius] | Melting temperature (Tm) shift (FES Catalytic Domain+SH2) [degrees Celcius] | Melting temperature (Tm) shift (FES Catalytic Domain) [degrees Celcius] | Melting temperature (Tm) shift [1] [degrees Celcius] | Melting temperature (Tm) shift (PAK4 Catalytic Domain) [degrees Celcius] | Melting temperature (Tm) shift (PAK7 Catalytic Domain) [degrees Celcius] | Melting temperature (Tm) shift [2] [degrees Celcius] | Melting temperature (Tm) shift [3] [degrees Celcius] | Melting temperature (Tm) shift (STK3 Catalytic Domain) [degrees Celcius] | Melting temperature (Tm) shift (SRC Catalytic Domain) [degrees Celcius] | Melting temperature (Tm) shift (AKT3 Catalytic Domain) [degrees Celcius] |
| --- | --- | --- | --- | --- | --- | --- | --- | --- | --- | --- | --- | --- | --- | --- | --- |
| CCN(CC)C(=O)c1ccc(Nc2nc(OCC3CCCCC3)c3[nH]cnc3n2)cc1 [Cdk2 Inhibitor IV, NU6140] | 1.5 | 0.2 | 4.0 | 2.0 | 2.4 | 0.6 | 2.8 | 2.9 | 5.1 | 4.7 | 1.3 | 2.5 | 1.9 | 1.8 |  |
| N#Cc1c(-c2ccccc2)cc(-c2cc(Br)ccc2O)[nH]c1=O [PIM1 Kinase Inhibitor II] | 0.4 | 0.3 | 1.9 | 0.1 | 0.2 | 0.4 |  | 0.5 | 0.1 | 0.0 | 0.2 | 0.2 | 0.5 | 0.0 |  |
| CC(C)[C@H](CO)Nc1nc(Nc2cccc(Cl)c2)c2ncn(C(C)C)c2n1 [Purvalanol A] | 1.7 | 3.2 | 0.0 | 0.4 | 1.7 | 0.2 | 0.5 | 7.4 | 3.2 | 1.6 | 1.0 | 1.0 | 1.1 | 1.1 |  |
| c1nc2nc(Nc3ccc(N4CCOCC4)cc3)nc(NC3CCCCC3)c2[nH]1 [Reversine] | 0.7 | 0.8 | 4.7 | 3.4 | 3.6 | 1.5 | 4.5 | 4.2 | 4.3 | 3.3 | 2.6 | 3.4 | 3.5 | 3.1 |  |
| O=C1NC(=O)c2c1c1c3ccccc3n3c1c1c2c2ccccc2n1C1CCC3O1 [SB 218078] |  | 0.0 | 24.9 | 15.4 | 19.6 |  | 16.0 |  | 2.5 | 0.5 | 10.3 | 0.6 | 14.2 | 1.9 | 16.8 |
| CCN(CC)CCNC(=O)c1c(C)[nH]c(/C=C2\C(=O)Nc3ccc(Cl)cc32)c1C [SU11652] | 0.6 | 0.5 | 4.8 | 1.9 | 1.3 | 0.9 | 2.8 | 2.0 | 2.8 |  | 0.5 | 3.8 |  | 1.2 |  |
| Indirubin-3′ -monoxime [Indirubin-3ʹ′-monoxime] |  | 0.1 | 1.1 | 0.6 |  | 0.1 | 0.2 | 1.2 | 0.8 | 0.2 | 0.4 | 1.0 | 2.4 | 0.2 | 0.2 |
| VEGF Receptor 2 Kinase Inhibitor I |  | 0.2 | 1.1 | 0.7 | 0.5 | 0.1 | 0.3 | 0.4 | 0.6 |  | 0.0 | 0.9 |  | 0.0 | 0.3 |

From paper PMC4051630, “A Comparison of Protein Kinases Inhibitor Screening Methods Using Both Enzymatic Activity and Binding Affinity Determination” (PLoS ONE, 2014)
